Measured values taken from the supplement of paper PMC10307832.

Experiments:
Experiment in all cases: relative viability (nuclei count vs DMSO), 5 days (fraction); higher = more cells survive
Obatoclax + Pictilisib = compound: COC1=CC(c2cc3ccccc3[nH]2)=N/C1=C\c1[nH]c(C)cc1C [Obatoclax] + CS(=O)(=O)N1CCN(Cc2cc3nc(-c4cccc5[nH]ncc45)nc(N4CCOCC4)c3s2)CC1 [Pictilisib] (partner 1 µM)
Summary of the method: (§1)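 Lung cancer cell lines were pin-tool dosed in 1536-well plates on the day after seeding, with either a lone drug or a fixed anchor-drug dose plus five library-drug doses (not always all listed) in √10 steps. Nuclei were counted on 4× images after 5 days. Relative viability is the ratio of treated-well to vehicle-well nuclei counts, with each value a median of duplicate plates.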

Bortezomib + OSI-027 = compound: CC(C)C[C@H](NC(=O)[C@H](Cc1ccccc1)NC(=O)c1cnccn1)B(O)O [Bortezomib] + COc1cccc2cc(-c3nc([C@H]4CC[C@H](C(=O)O)CC4)n4ncnc(N)c34)[nH]c12 [OSI-027] (partner 0.5 µM)
Summary of the method: as §1

[1] = compound: CC1=CC(=NN1)NC2=CC(=NC(=N2)/C=C/C3=CC=CC=C3)N4CCN(CC4)C + CS(=O)(=O)CCNCc1ccc(-c2ccc3ncnc(Nc4ccc(OCc5cccc(F)c5)c(Cl)c4)c3c2)o1 [Lapatinib] (partner 2 µM)
Summary of the method: as §1

Bortezomib + Vorinostat = compound: CC(C)C[C@H](NC(=O)[C@H](Cc1ccccc1)NC(=O)c1cnccn1)B(O)O [Bortezomib] + O=C(CCCCCCC(=O)Nc1ccccc1)NO [Vorinostat] (partner 1 µM)
Summary of the method: as §1

| Cell Line | relative viability (Obatoclax + Pictilisib; first compound 0.01 µM) | relative viability (Obatoclax + Pictilisib; first compound 0.03162 µM) | relative viability (Obatoclax + Pictilisib; first compound 0.1 µM) | relative viability (Obatoclax + Pictilisib; first compound 0.3162 µM) | relative viability (Obatoclax + Pictilisib; first compound 1 µM) | relative viability (Bortezomib + OSI-027; first compound 0.0002 µM) | relative viability (Bortezomib + OSI-027; first compound 0.000632 µM) | relative viability (Bortezomib + OSI-027; first compound 0.002 µM) | relative viability (Bortezomib + OSI-027; first compound 0.006325 µM) | relative viability (Bortezomib + OSI-027; first compound 0.02 µM) | relative viability ([1]; first compound 0.08 µM) | relative viability ([1]; first compound 0.253 µM) | relative viability ([1]; first compound 0.8 µM) | relative viability ([1]; first compound 2.53 µM) | relative viability ([1]; first compound 8 µM) | relative viability (Bortezomib + Vorinostat; first compound 0.0002 µM) | relative viability (Bortezomib + Vorinostat; first compound 0.000632 µM) | relative viability (Bortezomib + Vorinostat; first compound 0.002 µM) | relative viability (Bortezomib + Vorinostat; first compound 0.006325 µM) | relative viability (Bortezomib + Vorinostat; first compound 0.02 µM) |
| --- | --- | --- | --- | --- | --- | --- | --- | --- | --- | --- | --- | --- | --- | --- | --- | --- | --- | --- | --- | --- |
| H3255 | 0.476 | 0.491 | 0.572 | 0.456 | 0.434 | 0.593 | 0.601 | 0.466 | 0.352 | 0.28 | 0.244 | 0.211 | 0.478 | 0.203 | 0.123 | 0.811 | 0.827 | 0.748 | 0.253 | 0.244 |
| EPLC-272H | 0.338 | 0.324 | 0.315 | 0.273 | 0.343 | 0.306 | 0.282 | 0.286 | 0.125 | 0.106 | 0.893 | 0.99 | 0.868 | 0.462 | 0.157 | 0.333 | 0.4 | 0.0774 | 0.0603 | 0.0567 |
| NCI-H647 | 0.469 | 0.393 | 0.118 | 0.33 | 0.153 | 0.574 | 0.437 | 0.483 | 0.0304 | 0.0382 | 1.02 | 1.29 | 1.08 | 0.0749 | 0.0425 | 0.492 | 0.583 | 0.0536 | 0.0218 | 0.0184 |
| LXF-289 | 0.778 | 0.773 | 0.751 | 0.72 | 0.694 | 0.773 | 0.754 | 0.803 | 0.0966 | 0.0619 | 0.918 | 0.969 | 0.839 | 0.487 | 0.574 | 0.732 | 0.734 | 0.896 | 0.0875 | 0.0888 |
